According to ChEMBL document CHEMBL1201862, “PubChem BioAssay data set” (2004):
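Growth conditions: 96-well plates. Treatment: test compound, 48 hours, 5 concentrations. Analysis: linear interpolation between bracketing concentrations; unreached endpoints set to highest concentration. Abbreviation: GI50, concentration required for 50% inhibition of growth.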 Calls of active or inactive are those of the source. No stated cut-off is given here; in the data, active = GI50 up to about 1.1 µM and inactive = higher.

Columns and labels:
Assay in all cases: growth of human tumour cells (NCI), 48 h
786-0 = test system: 786-0
COLO 205 = test system: COLO 205
HCT-116 = test system: HCT-116
HCT-15 = test system: HCT-15
KM12 = test system: KM12
MDA-MB-231 = test system: MDA-MB-231
MOLT-4 = test system: MOLT-4
NCI-H23 = test system: NCI-H23
NCI-H522 = test system: NCI-H522
OVCAR-5 = test system: OVCAR-5
OVCAR-8 = test system: OVCAR-8
RXF 393 = test system: RXF 393
SN12C = test system: SN12C
T47D = test system: T47D
U-251 = test system: U-251
UACC-257 = test system: UACC-257
UO-31 = test system: UO-31
M14 = test system: M14
SNB-19 = test system: SNB-19

| SMILES | GI50 (786-0) | GI50 (COLO 205) | GI50 (HCT-116) | GI50 (HCT-15) | GI50 (KM12) | GI50 (MDA-MB-231) | GI50 (MOLT-4) | GI50 (NCI-H23) | GI50 (NCI-H522) | GI50 (OVCAR-5) | GI50 (OVCAR-8) | GI50 (RXF 393) | GI50 (SN12C) | GI50 (T47D) | GI50 (U-251) | GI50 (UACC-257) | GI50 (UO-31) | GI50 (M14) | GI50 (SNB-19) |
| --- | --- | --- | --- | --- | --- | --- | --- | --- | --- | --- | --- | --- | --- | --- | --- | --- | --- | --- | --- |
| O=C(O)c1c2c(cc3c1CC1(Cc4ccccc4C1)C3)CCC2 | 80 µM (inactive) | 57.7 µM (inactive) | > 10 µM (inactive) | 82.4 µM | 59.3 µM (inactive) | 95.7 µM (inactive) | 82.8 µM (inactive) | 67.5 µM (inactive) | 49.1 µM (inactive) | > 100 µM (inactive) | 63.1 µM (inactive) | > 100 µM (inactive) | 67.6 µM (inactive) | 77.1 µM (inactive) | 42.6 µM (inactive) | > 100 µM (inactive) | 30.3 µM (inactive) | – | – |
| O=C(Cc1nc2ccc(C(=O)c3ccccc3)cc2nc1O)C(=O)Nc1ccc(Br)cc1 | > 100 µM (inactive) | – | 75.3 µM (inactive) | 54.3 µM | 34.8 µM (inactive) | > 100 µM (inactive) | – | > 100 µM (inactive) | 48.9 µM (inactive) | > 100 µM (inactive) | 96.2 µM (inactive) | > 100 µM (inactive) | > 100 µM (inactive) | > 100 µM (inactive) | > 100 µM (inactive) | > 100 µM (inactive) | 57.7 µM (inactive) | > 100 µM (inactive) | – |
| C[C@H]1OC(=O)[C@@H]2N=NN(Cc3ccccc3)[C@H]12 | > 100 µM (inactive) | > 100 µM (inactive) | > 100 µM (inactive) | > 100 µM | > 100 µM (inactive) | > 100 µM (inactive) | > 100 µM (inactive) | > 100 µM (inactive) | > 100 µM (inactive) | > 100 µM (inactive) | > 100 µM (inactive) | > 100 µM (inactive) | > 100 µM (inactive) | > 100 µM (inactive) | > 100 µM (inactive) | – | > 100 µM (inactive) | > 100 µM (inactive) | > 100 µM (inactive) |
| Cn1c(=O)c2sc3cc4c(cc3c2c2ccccc21)sc1c(=O)n(C)c2ccccc2c14 | 31.8 µM (inactive) | > 100 µM (inactive) | 67.5 µM (inactive) | > 100 µM | > 100 µM (inactive) | 16.6 µM (inactive) | 78.2 µM (inactive) | 45.7 µM (inactive) | 34.2 µM (inactive) | 57.3 µM (inactive) | 41.7 µM (inactive) | 15.9 µM (inactive) | > 100 µM (inactive) | > 100 µM (inactive) | 19 µM (inactive) | > 100 µM (inactive) | 74.8 µM (inactive) | 88.1 µM (inactive) | – |
| CN1CCc2ccccc2C1Cc1ccccc1NC(=O)c1sc2ccccc2c1Cl (stereo not drawn) | > 100 µM (inactive) | > 100 µM (inactive) | > 100 µM (inactive) | > 100 µM | > 100 µM (inactive) | > 100 µM (inactive) | > 100 µM (inactive) | > 100 µM (inactive) | > 100 µM (inactive) | – | > 100 µM (inactive) | > 100 µM (inactive) | > 100 µM (inactive) | > 100 µM (inactive) | > 100 µM (inactive) | > 100 µM (inactive) | > 100 µM (inactive) | > 100 µM (inactive) | > 100 µM (inactive) |
| O=C1C=CC=C/C1=C1\N=C(c2ccccc2OCC(=O)c2ccc(Br)cc2)SS1 | 31.5 µM (inactive) | > 100 µM (inactive) | 78.9 µM (inactive) | > 100 µM | > 100 µM (inactive) | > 10 µM (inactive) | > 10 µM (inactive) | 35.2 µM (inactive) | – | > 100 µM (inactive) | 93.5 µM (inactive) | 30 µM (inactive) | > 100 µM (inactive) | > 100 µM (inactive) | 40.3 µM (inactive) | > 100 µM (inactive) | > 100 µM (inactive) | 73.3 µM (inactive) | > 100 µM (inactive) |
| COC(=O)C(COC(=O)/C=C/c1ccc(OC(C)=O)c(OC(C)=O)c1)NC(=O)/C=C/c1ccc(OC(C)=O)c(OC(C)=O)c1 (stereo not drawn) | 17.9 µM (inactive) | 20.7 µM (inactive) | 19.2 µM (inactive) | 25.5 µM | 17.6 µM (inactive) | 14.9 µM (inactive) | 38.3 µM (inactive) | 25.9 µM (inactive) | 18.1 µM (inactive) | 38.7 µM (inactive) | 30.4 µM (inactive) | 37.1 µM (inactive) | 19.6 µM (inactive) | 16.6 µM (inactive) | 28.4 µM (inactive) | 44.4 µM (inactive) | – | 17.6 µM (inactive) | 22.9 µM (inactive) |
| COP(=O)(Cc1ccc(/C=C/C#N)o1)OC | > 100 µM (inactive) | > 100 µM (inactive) | > 100 µM (inactive) | > 100 µM | > 100 µM (inactive) | > 100 µM (inactive) | > 100 µM (inactive) | > 100 µM (inactive) | > 100 µM (inactive) | – | > 100 µM (inactive) | > 100 µM (inactive) | – | > 100 µM (inactive) | > 100 µM (inactive) | – | – | > 100 µM (inactive) | > 100 µM (inactive) |
| CC1=C/C(=N\OCC(=O)O)CC(c2ccc(C(C)C)cc2)C1 (stereo not drawn) | 65.8 µM (inactive) | 76.7 µM (inactive) | 45.6 µM (inactive) | 23.2 µM | 48.5 µM (inactive) | 54.8 µM (inactive) | 16.3 µM (inactive) | – | 23.2 µM (inactive) | > 100 µM (inactive) | 27.9 µM (inactive) | > 100 µM (inactive) | 60.1 µM (inactive) | 65.3 µM (inactive) | 63.8 µM (inactive) | 43 µM (inactive) | – | 35.2 µM (inactive) | – |
| [N-]=[N+]=NC1=C(C(=O)c2ccccc2)C(=O)c2cccc3cccc1c23 | 25.3 µM (inactive) | > 100 µM (inactive) | 72.1 µM (inactive) | – | 25.1 µM (inactive) | 23.4 µM (inactive) | 23 µM (inactive) | 51.3 µM (inactive) | 23 µM (inactive) | > 100 µM (inactive) | 37 µM (inactive) | 22.4 µM (inactive) | 63 µM (inactive) | 78.3 µM (inactive) | 21.2 µM (inactive) | 48.8 µM (inactive) | 26.2 µM (inactive) | 49.9 µM (inactive) | 28.1 µM (inactive) |
| CCCCCCCCCCCCCCCCS(=O)(=O)c1ccc(NN)cc1 | > 10 µM (inactive) | > 10 µM (inactive) | 4.76 µM (inactive) | > 10 µM | > 10 µM (inactive) | > 10 µM (inactive) | 6.43 µM (inactive) | 4.88 µM (inactive) | 5.9 µM (inactive) | > 10 µM (inactive) | 6.53 µM (inactive) | > 10 µM (inactive) | > 10 µM (inactive) | > 10 µM (inactive) | 6.19 µM (inactive) | > 10 µM (inactive) | – | > 10 µM (inactive) | > 10 µM (inactive) |
| O=c1c2cccnc2[nH]c2ccc3[nH]ncc3c12 | > 10 µM (inactive) | > 10 µM (inactive) | 7.91 µM (inactive) | 6.18 µM | 5.45 µM (inactive) | > 10 µM (inactive) | > 10 µM (inactive) | > 10 µM (inactive) | > 10 µM (inactive) | > 10 µM (inactive) | > 10 µM (inactive) | > 10 µM (inactive) | > 10 µM (inactive) | > 10 µM (inactive) | > 10 µM (inactive) | > 10 µM (inactive) | – | > 10 µM (inactive) | > 10 µM (inactive) |
